Experimental findings from ChEMBL document CHEMBL3991601, “The target landscape of clinical kinase drugs” (Science, 2017) are described below.

Molecules are shown by their SMILES. The source made the active and inactive calls.

Experiment [1] addresses Proto-oncogene tyrosine-protein kinase Src (Homo sapiens, UniProt P12931).
In experiment [2] the target is Ras-related protein Rab-6A (Homo sapiens, UniProt P20340).
The target of experiment [3] is Casein kinase I isoform gamma-1 (Homo sapiens, UniProt Q9HCP0).
Sequence of Casein kinase I isoform gamma-1 (Q9HCP0 whole entry, canonical isoform): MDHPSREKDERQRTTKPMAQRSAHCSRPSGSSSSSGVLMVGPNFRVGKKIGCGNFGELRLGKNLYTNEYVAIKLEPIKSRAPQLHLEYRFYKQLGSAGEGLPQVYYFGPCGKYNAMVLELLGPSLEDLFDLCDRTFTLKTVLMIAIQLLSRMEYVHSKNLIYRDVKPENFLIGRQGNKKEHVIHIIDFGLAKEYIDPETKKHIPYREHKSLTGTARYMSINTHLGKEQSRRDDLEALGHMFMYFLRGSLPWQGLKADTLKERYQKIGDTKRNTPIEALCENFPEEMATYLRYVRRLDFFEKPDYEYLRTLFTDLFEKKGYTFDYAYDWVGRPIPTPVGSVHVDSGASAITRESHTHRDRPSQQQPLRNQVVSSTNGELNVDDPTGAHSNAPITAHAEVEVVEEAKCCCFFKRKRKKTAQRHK
Experiment [4] has as its target Glycogen synthase kinase-3 alpha (Homo sapiens, UniProt P49840).
The target in experiment [5] is Protein-tyrosine kinase 2-beta (Homo sapiens, UniProt Q14289).
In experiment [6] the target is Serine/threonine-protein kinase SIK2 (Homo sapiens, UniProt Q9H0K1).
Sequence of Serine/threonine-protein kinase SIK2 (Q9H0K1 whole entry): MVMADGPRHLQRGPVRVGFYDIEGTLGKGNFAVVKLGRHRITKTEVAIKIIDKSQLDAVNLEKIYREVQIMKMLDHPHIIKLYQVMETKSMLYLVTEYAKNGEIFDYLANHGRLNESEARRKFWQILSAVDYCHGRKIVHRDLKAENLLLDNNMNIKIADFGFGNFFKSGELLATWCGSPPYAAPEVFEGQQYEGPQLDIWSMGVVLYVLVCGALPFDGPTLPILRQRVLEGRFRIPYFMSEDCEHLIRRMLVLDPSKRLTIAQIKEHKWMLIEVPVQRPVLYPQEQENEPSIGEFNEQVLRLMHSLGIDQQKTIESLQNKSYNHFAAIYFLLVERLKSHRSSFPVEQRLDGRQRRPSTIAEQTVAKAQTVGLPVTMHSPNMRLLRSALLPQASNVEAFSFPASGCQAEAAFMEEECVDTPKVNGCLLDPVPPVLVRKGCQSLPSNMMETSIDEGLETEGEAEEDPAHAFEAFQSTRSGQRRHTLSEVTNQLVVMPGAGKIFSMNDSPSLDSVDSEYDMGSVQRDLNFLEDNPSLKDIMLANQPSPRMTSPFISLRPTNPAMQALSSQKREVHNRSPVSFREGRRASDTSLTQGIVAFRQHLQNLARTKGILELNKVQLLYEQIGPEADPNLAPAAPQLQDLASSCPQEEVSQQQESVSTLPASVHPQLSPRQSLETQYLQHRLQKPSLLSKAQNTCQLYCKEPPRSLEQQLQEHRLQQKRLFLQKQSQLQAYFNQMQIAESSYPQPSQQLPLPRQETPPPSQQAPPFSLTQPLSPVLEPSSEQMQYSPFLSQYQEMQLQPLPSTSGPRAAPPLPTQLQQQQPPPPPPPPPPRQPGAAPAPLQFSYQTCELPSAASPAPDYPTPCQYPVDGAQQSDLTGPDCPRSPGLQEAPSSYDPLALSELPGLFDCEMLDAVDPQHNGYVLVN
The next experiment addresses T1, ADP/ATP translocase 2 (Homo sapiens, UniProt P05141).
T1 sequence (P05141 whole entry): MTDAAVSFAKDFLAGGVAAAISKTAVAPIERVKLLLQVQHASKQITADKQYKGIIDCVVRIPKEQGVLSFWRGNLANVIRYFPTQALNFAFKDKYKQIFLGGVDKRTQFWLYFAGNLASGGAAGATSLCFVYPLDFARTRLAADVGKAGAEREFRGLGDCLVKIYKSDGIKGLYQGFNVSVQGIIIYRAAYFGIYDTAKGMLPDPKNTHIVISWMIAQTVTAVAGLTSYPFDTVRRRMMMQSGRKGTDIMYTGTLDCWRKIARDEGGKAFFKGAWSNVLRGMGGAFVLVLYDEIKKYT

Another experiment has as its target GTP-binding protein 4 (Homo sapiens, UniProt Q9BZE4).
Experiment [7] deals with Ribosomal protein S6 kinase beta-1 (Homo sapiens, UniProt P23443).
Sequence of Ribosomal protein S6 kinase beta-1 (P23443 whole entry): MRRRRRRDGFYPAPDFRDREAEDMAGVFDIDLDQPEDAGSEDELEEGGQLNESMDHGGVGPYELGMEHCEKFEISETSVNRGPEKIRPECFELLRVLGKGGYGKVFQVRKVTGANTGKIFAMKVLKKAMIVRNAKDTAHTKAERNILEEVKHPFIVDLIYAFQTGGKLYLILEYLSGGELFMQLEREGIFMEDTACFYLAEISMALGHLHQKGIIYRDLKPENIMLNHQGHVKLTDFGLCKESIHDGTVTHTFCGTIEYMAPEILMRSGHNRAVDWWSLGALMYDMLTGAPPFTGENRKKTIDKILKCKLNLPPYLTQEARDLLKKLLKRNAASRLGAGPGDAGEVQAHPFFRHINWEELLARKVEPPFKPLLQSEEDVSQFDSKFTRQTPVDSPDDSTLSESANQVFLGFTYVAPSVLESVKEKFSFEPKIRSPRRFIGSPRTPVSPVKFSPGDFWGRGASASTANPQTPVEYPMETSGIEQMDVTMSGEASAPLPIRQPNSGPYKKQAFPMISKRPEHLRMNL
For experiment [8], the target named is Mitogen-activated protein kinase 1 (Homo sapiens, UniProt P28482).
In experiment [9] the target is T2, Glycogen phosphorylase, brain form (Homo sapiens, UniProt P11216).
T2 sequence (P11216 whole entry): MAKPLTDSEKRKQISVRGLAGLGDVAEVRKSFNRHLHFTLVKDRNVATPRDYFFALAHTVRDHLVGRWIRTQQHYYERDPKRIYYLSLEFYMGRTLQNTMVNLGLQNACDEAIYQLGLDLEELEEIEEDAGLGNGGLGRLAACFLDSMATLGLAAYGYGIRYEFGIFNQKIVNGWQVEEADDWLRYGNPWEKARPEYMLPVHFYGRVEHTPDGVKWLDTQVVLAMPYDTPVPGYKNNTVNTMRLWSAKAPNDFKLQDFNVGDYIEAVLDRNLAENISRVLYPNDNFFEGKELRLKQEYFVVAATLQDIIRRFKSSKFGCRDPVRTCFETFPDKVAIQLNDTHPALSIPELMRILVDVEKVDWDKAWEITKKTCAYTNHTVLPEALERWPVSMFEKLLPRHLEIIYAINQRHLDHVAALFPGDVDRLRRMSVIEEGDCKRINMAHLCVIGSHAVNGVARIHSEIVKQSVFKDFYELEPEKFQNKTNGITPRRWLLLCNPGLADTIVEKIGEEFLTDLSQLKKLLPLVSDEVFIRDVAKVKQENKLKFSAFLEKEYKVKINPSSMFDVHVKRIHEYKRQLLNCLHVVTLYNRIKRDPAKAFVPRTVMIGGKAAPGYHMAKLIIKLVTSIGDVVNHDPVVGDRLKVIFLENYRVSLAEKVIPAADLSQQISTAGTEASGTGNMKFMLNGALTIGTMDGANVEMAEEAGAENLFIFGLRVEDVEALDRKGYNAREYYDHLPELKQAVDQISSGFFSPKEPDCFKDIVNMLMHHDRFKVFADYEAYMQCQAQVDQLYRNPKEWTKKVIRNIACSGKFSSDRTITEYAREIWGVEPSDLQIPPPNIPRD

Experiment [10] concerns the target T3, Delta(24)-sterol reductase (Homo sapiens, UniProt Q15392).
T3 sequence (Q15392 whole entry): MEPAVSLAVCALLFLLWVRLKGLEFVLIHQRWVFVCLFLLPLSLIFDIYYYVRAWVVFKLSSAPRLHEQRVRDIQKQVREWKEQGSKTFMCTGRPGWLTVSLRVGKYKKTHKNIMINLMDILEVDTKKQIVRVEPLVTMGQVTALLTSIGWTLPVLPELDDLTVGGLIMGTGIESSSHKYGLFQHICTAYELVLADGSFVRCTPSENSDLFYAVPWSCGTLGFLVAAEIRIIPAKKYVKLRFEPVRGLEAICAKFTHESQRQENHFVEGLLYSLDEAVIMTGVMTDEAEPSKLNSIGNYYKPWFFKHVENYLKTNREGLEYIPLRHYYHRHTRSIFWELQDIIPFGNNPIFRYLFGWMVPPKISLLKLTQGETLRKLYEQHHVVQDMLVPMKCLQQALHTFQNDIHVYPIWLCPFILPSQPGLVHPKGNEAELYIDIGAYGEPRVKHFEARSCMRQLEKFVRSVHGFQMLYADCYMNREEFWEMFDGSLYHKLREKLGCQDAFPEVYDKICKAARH

Experiment [11] has as its target STE20-like serine/threonine-protein kinase (Homo sapiens, UniProt Q9H2G2).
In experiment [12] the target is Tyrosine-protein kinase ABL1 (Homo sapiens, UniProt P00519).
Sequence of Tyrosine-protein kinase ABL1 (P00519 whole entry): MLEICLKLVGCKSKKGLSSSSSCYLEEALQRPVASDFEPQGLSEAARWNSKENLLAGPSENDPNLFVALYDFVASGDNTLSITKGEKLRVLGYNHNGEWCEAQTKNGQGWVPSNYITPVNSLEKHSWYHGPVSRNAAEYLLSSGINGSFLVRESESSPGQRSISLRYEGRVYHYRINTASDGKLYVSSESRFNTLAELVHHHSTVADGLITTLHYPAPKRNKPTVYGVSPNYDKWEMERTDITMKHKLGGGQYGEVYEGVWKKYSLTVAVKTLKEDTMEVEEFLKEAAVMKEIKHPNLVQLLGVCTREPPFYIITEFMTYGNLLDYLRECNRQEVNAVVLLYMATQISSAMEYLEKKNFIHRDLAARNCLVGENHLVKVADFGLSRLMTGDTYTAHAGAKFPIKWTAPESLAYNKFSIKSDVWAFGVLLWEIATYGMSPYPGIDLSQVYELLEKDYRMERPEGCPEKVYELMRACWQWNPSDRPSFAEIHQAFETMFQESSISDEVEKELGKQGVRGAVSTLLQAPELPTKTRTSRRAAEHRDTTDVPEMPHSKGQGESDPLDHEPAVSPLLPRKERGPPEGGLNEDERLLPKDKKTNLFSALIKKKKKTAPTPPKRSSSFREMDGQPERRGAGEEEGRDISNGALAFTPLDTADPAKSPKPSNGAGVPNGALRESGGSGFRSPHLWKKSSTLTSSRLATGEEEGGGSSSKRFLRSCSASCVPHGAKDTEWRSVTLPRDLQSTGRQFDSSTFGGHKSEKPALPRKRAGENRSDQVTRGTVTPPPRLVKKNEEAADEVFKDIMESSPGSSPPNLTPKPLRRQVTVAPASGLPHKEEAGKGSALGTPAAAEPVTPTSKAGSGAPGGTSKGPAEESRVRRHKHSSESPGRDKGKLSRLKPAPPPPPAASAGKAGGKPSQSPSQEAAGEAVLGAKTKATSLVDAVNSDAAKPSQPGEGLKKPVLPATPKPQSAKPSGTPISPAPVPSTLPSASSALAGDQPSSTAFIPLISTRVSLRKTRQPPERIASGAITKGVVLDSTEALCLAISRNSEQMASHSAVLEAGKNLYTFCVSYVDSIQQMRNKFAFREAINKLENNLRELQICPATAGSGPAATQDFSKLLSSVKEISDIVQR
Experiment [13] has as its target Inosine-5'-monophosphate dehydrogenase 2 (Homo sapiens, UniProt P12268).
Further: in the data inactive means no Kd found up to 30 µM.

Sequence of Glycogen synthase kinase-3 alpha (P49840 whole entry): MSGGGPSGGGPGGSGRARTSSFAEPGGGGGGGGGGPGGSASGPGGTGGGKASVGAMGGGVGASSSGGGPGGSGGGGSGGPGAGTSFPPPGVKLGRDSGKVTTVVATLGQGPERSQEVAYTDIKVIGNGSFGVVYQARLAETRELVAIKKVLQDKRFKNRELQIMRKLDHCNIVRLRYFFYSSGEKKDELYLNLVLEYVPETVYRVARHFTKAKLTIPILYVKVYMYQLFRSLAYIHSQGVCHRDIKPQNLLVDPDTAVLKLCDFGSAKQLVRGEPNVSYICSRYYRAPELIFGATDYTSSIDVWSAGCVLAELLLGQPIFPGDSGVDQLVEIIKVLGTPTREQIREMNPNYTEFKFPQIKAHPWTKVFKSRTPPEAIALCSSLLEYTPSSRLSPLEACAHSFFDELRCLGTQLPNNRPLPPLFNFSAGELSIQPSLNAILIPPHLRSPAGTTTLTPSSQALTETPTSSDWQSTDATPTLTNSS
Sequence of STE20-like serine/threonine-protein kinase (Q9H2G2 whole entry): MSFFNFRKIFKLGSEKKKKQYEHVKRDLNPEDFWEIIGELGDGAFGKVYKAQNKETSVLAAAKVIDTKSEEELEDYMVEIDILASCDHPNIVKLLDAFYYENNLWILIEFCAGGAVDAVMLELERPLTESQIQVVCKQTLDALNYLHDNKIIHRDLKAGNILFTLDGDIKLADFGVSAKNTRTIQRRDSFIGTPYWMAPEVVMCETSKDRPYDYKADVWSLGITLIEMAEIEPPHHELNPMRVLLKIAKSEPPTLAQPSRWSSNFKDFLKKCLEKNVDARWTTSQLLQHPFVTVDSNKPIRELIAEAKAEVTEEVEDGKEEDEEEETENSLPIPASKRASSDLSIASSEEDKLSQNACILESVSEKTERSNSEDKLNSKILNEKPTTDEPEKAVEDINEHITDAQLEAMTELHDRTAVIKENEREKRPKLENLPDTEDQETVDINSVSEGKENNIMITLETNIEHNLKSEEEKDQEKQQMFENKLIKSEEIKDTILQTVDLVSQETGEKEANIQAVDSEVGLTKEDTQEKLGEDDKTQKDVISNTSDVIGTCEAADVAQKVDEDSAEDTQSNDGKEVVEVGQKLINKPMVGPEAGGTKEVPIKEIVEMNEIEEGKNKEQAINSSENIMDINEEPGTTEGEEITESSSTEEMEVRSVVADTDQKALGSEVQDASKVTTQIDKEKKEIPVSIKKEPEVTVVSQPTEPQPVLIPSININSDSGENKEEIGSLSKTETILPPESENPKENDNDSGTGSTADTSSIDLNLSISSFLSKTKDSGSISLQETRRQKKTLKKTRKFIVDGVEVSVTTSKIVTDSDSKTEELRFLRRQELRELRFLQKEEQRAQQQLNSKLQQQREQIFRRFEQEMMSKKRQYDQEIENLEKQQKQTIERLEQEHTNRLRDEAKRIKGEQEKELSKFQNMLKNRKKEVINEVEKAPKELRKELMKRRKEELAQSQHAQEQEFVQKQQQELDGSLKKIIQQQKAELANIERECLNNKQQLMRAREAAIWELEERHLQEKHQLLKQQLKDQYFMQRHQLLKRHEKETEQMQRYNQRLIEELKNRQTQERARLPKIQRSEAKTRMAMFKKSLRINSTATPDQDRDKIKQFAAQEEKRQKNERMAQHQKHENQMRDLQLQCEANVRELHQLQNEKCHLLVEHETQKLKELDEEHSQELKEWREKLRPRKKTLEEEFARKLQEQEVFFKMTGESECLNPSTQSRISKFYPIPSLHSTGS
Sequence of Ras-related protein Rab-6A (P20340 whole entry, canonical isoform): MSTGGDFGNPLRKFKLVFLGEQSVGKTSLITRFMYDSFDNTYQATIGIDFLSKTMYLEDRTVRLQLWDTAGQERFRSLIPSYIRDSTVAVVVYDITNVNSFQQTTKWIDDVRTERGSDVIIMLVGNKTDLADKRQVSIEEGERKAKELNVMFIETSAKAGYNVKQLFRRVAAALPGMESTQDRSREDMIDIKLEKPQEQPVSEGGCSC

Consider `O[C@H]1CC[C@H](Nc2ncc3nc(Nc4c(F)cc(F)cc4F)n([C@H]4CCOC4)c3n2)CC1` [TANZISERTIB], for which the Kd in [1], in experiment [2], in experiment [3], in experiment [4], in [5] and in experiment [6] was > 30 µM (inactive) each time. For the same compound, the Kd is > 30 µM (inactive) at ADP/ATP translocase 2; > 30 µM (inactive) on GTP-binding protein 4; > 30 µM (inactive) in [7]; 1.23 µM (active) in experiment [8]; > 30 µM (inactive) in experiment [9]; > 30 µM (inactive) in experiment [10]. Also, the Kd in experiment [11] and in experiment [12] was > 30 µM (inactive) each time.
In the case of `CC1(COc2ccc3c(c2)ncn3-c2ccc3cccc(N4CCC(N)CC4)c3n2)COC1` [CRENOLANIB], the Kd in experiment [1], in experiment [2], in experiment [3], in experiment [4], in experiment [5] and in experiment [13] was > 30 µM (inactive) throughout. In addition, the Kd (on ADP/ATP translocase 2; on GTP-binding protein 4; in experiment [7]; in experiment [8]; in experiment [9]; in experiment [10]) was > 30 µM (inactive) each time. For the same compound, the Kd in experiment [11] and in experiment [12] was > 30 µM (inactive) each time.
`Cc1cc(-c2cc(OC(=O)c3ccccc3)ccc2Cl)cc2nnc(Nc3ccc(OCCN4CCCC4)cc3)nc12` [TG100-801]: the Kd in experiment [1], in [2], in experiment [3], in experiment [4], in experiment [5] and in experiment [6] was > 30 µM (inactive) throughout. In addition, the Kd (at ADP/ATP translocase 2; at GTP-binding protein 4; in [7]; in [8]; in [9]; in experiment [10]) was > 30 µM (inactive) throughout. For the same compound, the Kd in [11] was > 30 µM (inactive); in experiment [12], 10.7 µM (active).
Regarding `COc1ccc(-c2ccc3ncc4c(c3c2)n(-c2ccc(N3CCNCC3)c(C(F)(F)F)c2)c(=O)n4C)cn1` [BGT-226 FREE BASE], the Kd was > 30 µM (inactive) in experiment [1]; > 30 µM (inactive) in experiment [2]; 3.4 µM (active) in [4]; > 30 µM (inactive) in [5]; > 30 µM (inactive) in [6]; > 30 µM (inactive) in experiment [13]. In addition, the Kd (on ADP/ATP translocase 2; at GTP-binding protein 4; in [7]; in experiment [8]; in experiment [9]; in experiment [10]) was > 30 µM (inactive) in each case. Besides, the Kd in [11] and in experiment [12] was > 30 µM (inactive) each time.
For the compound `CNC(=O)c1ccc(Nc2ncc(C(F)(F)F)c(NCc3nccnc3N(C)S(C)(=O)=O)n2)cc1` [DEFACTINIB], the Kd is > 30 µM (inactive) in [1]; > 30 µM (inactive) in experiment [2]; > 30 µM (inactive) in experiment [3]; 1.46 µM (active) in experiment [4]; 0.423 µM (active) in experiment [5]; > 30 µM (inactive) in experiment [6]. The Kd (at ADP/ATP translocase 2; on GTP-binding protein 4; in [7]; in [8]; in experiment [9]; in [10]) was > 30 µM (inactive) in each case. Also, the Kd in [11] is 41 µM (active); in experiment [12], > 30 µM (inactive).
For the compound `COc1cccc(Nc2ncnn3ccc(CN4CC[C@@H](N)[C@H](O)C4)c23)c1` [BMS-690514], the Kd is 1.15 µM (active) in experiment [1]; > 30 µM (inactive) in experiment [3]; > 30 µM (inactive) in experiment [4]; > 30 µM (inactive) in [5]; 0.048 µM (active) in experiment [6]; > 30 µM (inactive) in experiment [13]. The Kd (at ADP/ATP translocase 2; on GTP-binding protein 4; in experiment [7]; in [8]; in experiment [9]; in experiment [10]) was > 30 µM (inactive) each time. In addition, in experiment [12], the Kd is 0.128 µM (active).
On to `S=C(NCc1ccc2c(c1)OCO2)N1CCN(c2ncnc3c2oc2ccccc23)CC1` [AMUVATINIB], for which the Kd in experiment [1], in experiment [2], in experiment [4], in experiment [5], in [6] and in [13] was > 30 µM (inactive) in each case. In addition, the Kd (at ADP/ATP translocase 2; on GTP-binding protein 4; in experiment [7]; in [8]; in [9]; in [10]) was > 30 µM (inactive) throughout. Further, the Kd in [11] and in experiment [12] was > 30 µM (inactive) each time.
Consider `CC(C)(O)CC(=O)NCCn1ccc2ncnc(Nc3ccc(Oc4cccc(C(F)(F)F)c4)c(Cl)c3)c21` [TAK-285], for which the Kd in experiment [1], in experiment [2], in [3], in experiment [4], in [5] and in experiment [6] was > 30 µM (inactive) each time. Also, the Kd (in experiment [13]; at ADP/ATP translocase 2; on GTP-binding protein 4; in experiment [7]; in [8]; in experiment [9]) was > 30 µM (inactive) each time. Moreover, the Kd in [10] and in experiment [12] was > 30 µM (inactive) throughout.
For the compound `C=CCN(/C=C1/C(=O)O[C@H](COC)[C@@]2(C)C1=C(O)C(=O)C1=C2[C@H](OC(C)=O)C[C@]2(C)C(=O)CC[C@@H]12)CC=C` [SONOLISIB], the Kd (in experiment [1]; in experiment [3]; in [4]; in experiment [5]; in experiment [6]; at ADP/ATP translocase 2) was > 30 µM (inactive) each time. In addition, the Kd (at GTP-binding protein 4; in [7]; in experiment [8]; in experiment [9]; in experiment [10]; in [11]) was > 30 µM (inactive) each time. Also, the Kd in experiment [12] is > 30 µM (inactive).

In general, Kd refers to the constant that tells how readily two partners part at equilibrium.
